Experimental data reported in PubChem BioAssay AID330 (DTP/NCI, 2004).
Where “and” joins values, the source holds several entries; their conditions need not be identical. Equal values may be shown once. Inconclusive results and toxic doses are left out.

Tested on: P388 leukemia ip, CD2F1 mice, survival T/C
Test: NCI In Vivo Anticancer Drug Screen. Data for tumor model P388 Leukemia (intraperitoneal) in CD2F1 (CDF1) mice
Settings: endpoint: median survival time, higher = longer survival
Procedure, shortened: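 Mice carrying the transplanted tumor received test compound or vehicle. Survival was recorded in each group, and the value is the treated-group measurement divided by that of the vehicle-treated control group.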

[1] = dose: 12.5 mg/kg/injection, schedule: Q01DX009 (ip), vehicle: saline with Tween-80
[2] = dose: 25.0 mg/kg/injection, schedule: Q01DX009 (ip), vehicle: saline with Tween-80
[3] = dose: 50.0 mg/kg/injection, schedule: Q01DX009 (ip), vehicle: saline with Tween-80
[4] = dose: 100.0 mg/kg/injection, schedule: Q01DX009 (ip), vehicle: saline with Tween-80
[5] = dose: 200.0 mg/kg/injection, schedule: Q01DX009 (ip), vehicle: saline with Tween-80
[6] = dose: 6.25 mg/kg/injection, schedule: Q04DX003 (ip), vehicle: saline with Tween-80
[7] = dose: 12.5 mg/kg/injection, schedule: Q04DX003 (ip), vehicle: saline with Tween-80
[8] = dose: 25.0 mg/kg/injection, schedule: Q04DX003 (ip), vehicle: saline with Tween-80
[9] = dose: 50.0 mg/kg/injection, schedule: Q01DX005 (ip), vehicle: saline with Tween-80
[10] = dose: 100.0 mg/kg/injection, schedule: Q01DX005 (ip), vehicle: saline with Tween-80
[11] = dose: 200.0 mg/kg/injection, schedule: Q01DX005 (ip), vehicle: saline with Tween-80
[12] = dose: 50.0 mg/kg/injection, schedule: Q01DX009 (ip), vehicle: suspension in saline
[13] = dose: 100.0 mg/kg/injection, schedule: Q01DX009 (ip), vehicle: suspension in saline
[14] = dose: 50.0 mg/kg/injection, schedule: Q04DX003 (ip), vehicle: saline with Tween-80
[15] = dose: 50.0 mg/kg/injection, schedule: Q01DX009 (ip), vehicle: Klucel (hydroxypropylcellulose) (HPC)
[16] = dose: 100.0 mg/kg/injection, schedule: Q01DX009 (ip), vehicle: Klucel (hydroxypropylcellulose) (HPC)
[17] = dose: 200.0 mg/kg/injection, schedule: Q01DX009 (ip), vehicle: Klucel (hydroxypropylcellulose) (HPC)

## CCOC(=O)C1(C(=O)OCC)COC(C)(C)OC1
[1]
  T/C: 105 % of control
[2]
  T/C: 101 % of control and 97 % of control
[3]
  T/C: 102 % of control and 106 % of control
[4]
  T/C: 106 % of control and 108 % of control
dose: 100.0 mg/kg/injection, schedule: Q04DX003 (ip), vehicle: saline
  T/C: 100 % of control
[5]
  T/C: 98 % of control and 103 % of control
dose: 200.0 mg/kg/injection, schedule: Q04DX003 (ip), vehicle: saline
  T/C: 101 % of control
dose: 400.0 mg/kg/injection, schedule: Q04DX003 (ip), vehicle: saline
  T/C: 100 % of control
dose: 600.0 mg/kg/injection, schedule: Q04DX003 (ip), vehicle: saline
  T/C: 101 % of control

## COCn1ncnc1C(=O)c1ccccc1
[3]
  T/C: 97 % of control
[4]
  T/C: 98 % of control
[5]
  T/C: 92 % of control

## COc1ccc2cc1-c1cc(ccc1O)CCC(O)CC1CCCC(CC(O)CC2)N1 (stereo not given)
dose: 15.0 mg/kg/injection, schedule: Q01DX009 (ip), vehicle: Klucel (hydroxypropylcellulose) (HPC)
  T/C: 100 % of control
dose: 30.0 mg/kg/injection, schedule: Q01DX009 (ip), vehicle: Klucel (hydroxypropylcellulose) (HPC)
  T/C: 107 % of control

## CCN(CC)CCNc1nc(NCCN(CC)CC)c2cn[nH]c2n1
dose: 1.5 mg/kg/injection, schedule: Q01DX005 (ip), vehicle: saline
  T/C: 99 % of control
dose: 3.0 mg/kg/injection, schedule: Q01DX005 (ip), vehicle: saline
  T/C: 103 % of control
dose: 6.0 mg/kg/injection, schedule: Q01DX005 (ip), vehicle: saline
  T/C: 100 % of control and 102 % of control

## CC(O)c1cc(=O)[nH][nH]1 (stereo not given)
dose: 50.0 mg/kg/injection, schedule: Q01DX005 (ip), vehicle: saline
  T/C: 105 % of control
dose: 100.0 mg/kg/injection, schedule: Q01DX005 (ip), vehicle: saline
  T/C: 99 % of control
dose: 200.0 mg/kg/injection, schedule: Q01DX005 (ip), vehicle: saline
  T/C: 110 % of control

## COC(=O)C12Oc3ccc(-c4ccc5c(c4O)C(O)=C4C(=O)CC(C)C(O)C4(C(=O)OC)O5)c(O)c3C(O)=C1C(=O)CC(C)C2O (stereo not given)
dose: 0.39 mg/kg/injection, schedule: Q01DX009 (ip), vehicle: saline with Tween-80
  T/C: 100 % of control
dose: 0.78 mg/kg/injection, schedule: Q01DX009 (ip), vehicle: saline with Tween-80
  T/C: 104 % of control
dose: 1.56 mg/kg/injection, schedule: Q01DX009 (ip), vehicle: saline with Tween-80
  T/C: 106 % of control
dose: 2.5 mg/kg/injection, schedule: Q01DX009 (ip), vehicle: saline with Tween-80
  T/C: 96 % of control
dose: 3.13 mg/kg/injection, schedule: Q01DX009 (ip), vehicle: saline with Tween-80
  T/C: 112 % of control
dose: 5.0 mg/kg/injection, schedule: Q01DX009 (ip), vehicle: saline with Tween-80
  T/C: 100 % of control
[6]
  T/C: 104 % of control
dose: 8.33 mg/kg/injection, schedule: Q04DX003 (ip), vehicle: saline with Tween-80
  T/C: 104 % of control
dose: 10.0 mg/kg/injection, schedule: Q01DX009 (ip), vehicle: saline with Tween-80
  T/C: 105 % of control
[7]
  T/C: 109 % of control
dose: 18.7 mg/kg/injection, schedule: Q04DX003 (ip), vehicle: saline with Tween-80
  T/C: 113 % of control
[8]
  T/C: 118 % of control

## NC(N)=O.NC(N)=O.NC(N)=O.NC(N)=O.NC(N)=O.NC(N)=O.[Fe+3].[O-][Cl+3]([O-])([O-])O
[3]
  T/C: 96 % of control
[4]
  T/C: 91 % of control
[5]
  T/C: 102 % of control

## Cc1cccc(NC(=S)NNc2nnc(-c3ccccc3)c(-c3ccccc3)n2)c1
[9]
  T/C: 90 % of control
[10]
  T/C: 99 % of control
[11]
  T/C: 100 % of control

## N#CC(NCc1ccccc1)C(O)c1ccccc1 (stereo not given)
dose: 25.0 mg/kg/injection, schedule: Q01DX009 (ip), vehicle: suspension in saline
  T/C: 105 % of control
[12]
  T/C: 105 % of control
[13]
  T/C: 105 % of control

## CCN(CC)Cc1cc2[nH]c3c4ccc(Cl)cc4ncc3c2cc1OC (tested in a mixture with another compound)
dose: 12.5 mg/kg/injection, schedule: Q01DX005 (ip), vehicle: saline with Tween-80
  T/C: 100 % of control and 108 % of control
dose: 25.0 mg/kg/injection, schedule: Q01DX005 (ip), vehicle: saline with Tween-80
  T/C: 109 % of control [middle of 4 runs]
[9]
  T/C: 102 % of control and 103 % of control and 113 % of control
[10]
  T/C: 105 % of control and 109 % of control and 106 % of control

## CCOc1cc(C=Nc2cc(Cl)c(O)c(Cl)c2)ccc1N(CCCl)CCCl
dose: 3.13 mg/kg/injection, schedule: Q04DX003 (ip), vehicle: saline with Tween-80
  T/C: 122 % of control
[1]
  T/C: 218 % of control
[7]
  T/C: 168 % of control
dose: 16.5 mg/kg/injection, schedule: Q04DX003 (ip), vehicle: saline with Tween-80
  T/C: 171 % of control
[2]
  T/C: 150 % of control
[8]
  T/C: 185 % of control and 200 % of control
dose: 37.5 mg/kg/injection, schedule: Q04DX003 (ip), vehicle: saline with Tween-80
  T/C: 204 % of control
[14]
  T/C: 90 % of control

## CCCCCCCC1(O)OC(=O)C(C)=C1C (stereo not given)
[7]
  T/C: 101 % of control
[8]
  T/C: 108 % of control
[14]
  T/C: 100 % of control

## COc1cc([N+](=O)[O-])ccc1N=Cc1ccc(C=Nc2ccc([N+](=O)[O-])cc2OC)cc1
[15]
  T/C: 95 % of control and 96 % of control
[16]
  T/C: 86 % of control and 96 % of control
[17]
  T/C: 96 % of control

## CC(C)(C)C(=O)CC(=O)C(C)(C)C.[Cl][Sb]1([Cl])[c]2ccccc2Cc2cccc[c]21
[3]
  T/C: 100 % of control
[4]
  T/C: 108 % of control
[5]
  T/C: 107 % of control

## CSc1ccc(NC(=S)SCc2ccc(Cl)cc2)cc1Cl
[12]
  T/C: 108 % of control
[13]
  T/C: 117 % of control
dose: 200.0 mg/kg/injection, schedule: Q01DX009 (ip), vehicle: suspension in saline
  T/C: 116 % of control

## COC(=O)C1CCC2C(C1)OC1(CC(OC(=O)/C=C\c3ccccc3)C(C)CO1)C2(O)CO (stereo not given)
dose: 5.0 mg/kg/injection, schedule: Q01DX009 (ip), vehicle: saline + alcohol
  T/C: 98 % of control
dose: 10.0 mg/kg/injection, schedule: Q01DX009 (ip), vehicle: saline + alcohol
  T/C: 103 % of control
dose: 20.0 mg/kg/injection, schedule: Q01DX009 (ip), vehicle: saline + alcohol
  T/C: 105 % of control
dose: 40.0 mg/kg/injection, schedule: Q01DX009 (ip), vehicle: saline + alcohol
  T/C: 105 % of control

## CCCCCCC(=O)/C=C/c1ccc(F)cc1
[9]
  T/C: 101 % of control
[10]
  T/C: 106 % of control
[11]
  T/C: 100 % of control

## OC(CC(O)(C(F)(F)F)C(F)(F)F)CC(O)(C(F)(F)F)C(F)(F)F
[6]
  T/C: 109 % of control
[7]
  T/C: 109 % of control
[8]
  T/C: 95 % of control

## O=S(=O)(NCCSSCCNS(=O)(=O)c1ccccc1)c1ccccc1
dose: 25.0 mg/kg/injection, schedule: Q01DX009 (ip), vehicle: other
  T/C: 96 % of control
dose: 50.0 mg/kg/injection, schedule: Q01DX009 (ip), vehicle: other
  T/C: 98 % of control and 105 % of control
dose: 100.0 mg/kg/injection, schedule: Q01DX009 (ip), vehicle: other
  T/C: 110 % of control
dose: 200.0 mg/kg/injection, schedule: Q01DX009 (ip), vehicle: other
  T/C: 103 % of control and 90 % of control

## CNC(=O)OCc1c(COC(=O)NC)c(-c2ccc(Cl)cc2Cl)n2c1CCC2
dose: 100.0 mg/kg/injection, schedule: Q01DX009 (ip), vehicle: distilled water + Tween-80
  T/C: 164 % of control

## Cn1c(=O)c2c(ncn2N)n(C)c1=O
dose: 60.0 mg/kg/injection, schedule: Q01DX005 (ip), vehicle: Klucel (hydroxypropylcellulose) (HPC)
  T/C: 111 % of control
dose: 120.0 mg/kg/injection, schedule: Q01DX005 (ip), vehicle: Klucel (hydroxypropylcellulose) (HPC)
  T/C: 102 % of control
dose: 240.0 mg/kg/injection, schedule: Q01DX005 (ip), vehicle: Klucel (hydroxypropylcellulose) (HPC)
  T/C: 107 % of control

## c1onc2c1C1CC3CC(C1)CC2C3
[15]
  T/C: 96 % of control
[16]
  T/C: 89 % of control
[17]
  T/C: 92 % of control

## O=C(O)CSC(SCC(=O)O)c1ccc(F)cc1
[9]
  T/C: 96 % of control
[10]
  T/C: 96 % of control
[11]
  T/C: 97 % of control

## CC(=O)Nc1cc(S(=O)(=O)O)cc2c(N=Nc3ccc(C(=O)Nc4ccc(N=Nc5ccc(S(=O)(=O)O)cc5)cc4)cc3)c(S(=O)(=O)O)cc(O)c12
[9]
  T/C: 93 % of control
[10]
  T/C: 90 % of control
[11]
  T/C: 101 % of control

## CCOC(=O)N1c2ccccc2N(C(=O)OCC)C1C#N
dose: 60.0 mg/kg/injection, schedule: Q01DX005 (ip), vehicle: saline with Tween-80
  T/C: 97 % of control
dose: 120.0 mg/kg/injection, schedule: Q01DX005 (ip), vehicle: saline with Tween-80
  T/C: 96 % of control
dose: 240.0 mg/kg/injection, schedule: Q01DX005 (ip), vehicle: saline with Tween-80
  T/C: 87 % of control
